Values of other authors in patent publication US20160051485A1, “Biodegradable Bionanoparticles for Releasing the GSE24-2 Peptide, Method for the Production Thereof, and Use of Same” (CONSEJO SUPERIOR DE INVESTIGACIONES (CSIC), priority 2013, published 2016).

Test system: F9A353V cells
Conditions: transfection of the peptide using a lipid compound; previous experiments

## GSE24.2: fragment of 55 amino acids of the internal domain of dyskerin (TRUB domains), activating telomerase (GFINLDKPSNPSSHEVVAWIRRILRVEKTGHSGTLDPKVTGCLIVCIERATRLVK; listed as Homo sapiens)
  Signal of the histone H2AX: reduces the signal of the histone H2AX
